Test results as given in ChEMBL document CHEMBL1201862, “PubChem BioAssay data set” (2004).
Active and inactive are the calls of the source.

Experiments:
HEK293 = experiment: cells; assay type: functional, cell-based; conditions: Homo sapiens
[1] = molecular target: T1, Nuclear receptor subfamily 0 group B member 1 (Homo sapiens, UniProt P51843); experiment: Luminescence-based cell-based high throughput dose response assay for inhibitors of the orphan nuclear receptor subfamily 0, group B, member 1 (DAX1; NR0B1). [Related pubchem assays (depositor defined):AID504766, AID504790]; assay type: functional
T1 sequence (P51843 whole entry): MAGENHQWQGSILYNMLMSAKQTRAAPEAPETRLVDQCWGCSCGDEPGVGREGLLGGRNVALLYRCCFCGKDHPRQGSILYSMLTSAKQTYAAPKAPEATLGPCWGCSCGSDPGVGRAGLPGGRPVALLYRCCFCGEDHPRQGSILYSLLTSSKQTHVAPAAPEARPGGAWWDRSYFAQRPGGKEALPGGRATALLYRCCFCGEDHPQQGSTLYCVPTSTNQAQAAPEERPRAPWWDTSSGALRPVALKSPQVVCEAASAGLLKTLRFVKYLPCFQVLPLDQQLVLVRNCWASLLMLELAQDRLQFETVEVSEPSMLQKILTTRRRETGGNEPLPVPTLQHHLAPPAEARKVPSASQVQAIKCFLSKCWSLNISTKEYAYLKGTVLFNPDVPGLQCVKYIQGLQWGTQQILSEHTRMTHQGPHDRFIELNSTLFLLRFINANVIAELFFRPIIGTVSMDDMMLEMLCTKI

Phospholipase A2 = Phospholipase A2 (Homo sapiens, UniProt P04054); assay type: functional;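 further: confirmatory dose-response counterscreen on phospholipase A2, testing hits that came from an ultra-high-throughput screen for ATG4B inhibitors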
Cysteine protease ATG4B = molecular target: T2, Cysteine protease ATG4B (Homo sapiens, UniProt Q9Y4P1); assay type: functional;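 further: Fluorescence-based dose-response confirmation assay measuring inhibition of ATG4B activity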
T2 sequence (Q9Y4P1 whole entry): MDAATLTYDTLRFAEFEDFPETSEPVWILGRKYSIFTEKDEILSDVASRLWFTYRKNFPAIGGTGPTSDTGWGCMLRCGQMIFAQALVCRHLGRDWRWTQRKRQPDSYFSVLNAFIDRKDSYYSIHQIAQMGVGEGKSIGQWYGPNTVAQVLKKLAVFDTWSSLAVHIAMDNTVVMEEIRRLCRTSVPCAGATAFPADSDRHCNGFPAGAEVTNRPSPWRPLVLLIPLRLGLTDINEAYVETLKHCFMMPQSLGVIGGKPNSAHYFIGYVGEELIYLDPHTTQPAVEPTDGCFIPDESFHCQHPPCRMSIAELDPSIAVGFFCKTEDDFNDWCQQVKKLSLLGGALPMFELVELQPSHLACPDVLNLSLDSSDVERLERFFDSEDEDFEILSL

BJ [2] = experiment: cells; assay type: functional, cell-based; conditions: Homo sapiens
BJ [3] = experiment: cytotoxicity toward BJ-TERT-LT-ST fibroblasts, dose response, cell-based, RAS-independent, luminescence (AID 1935); assay type: functional; conditions: Homo sapiens;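 further: BJ fibroblasts immortalized with TERT plus LT and ST oncogenes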
[4] = cytotoxicity toward DRD oncogenic fibroblasts, dose response, cell-based, non-viral oncogenic, luminescence (AID 1934); assay type: functional; conditions: Homo sapiens
BJ [5] = experiment: cytotoxicity toward Ras-transformed BJeLR fibroblasts, dose response, cell-based, alamar blue fluorescence, cherrypicked samples (AID 2631); assay type: functional; conditions: Homo sapiens;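 further: confirmatory dose-response assay in RAS-dependent BJ fibroblasts engineered with TERT, LT and ST, with cytotoxicity read by fluorescence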
BJ [6] = experiment: cytotoxicity toward BJ-TERT fibroblasts, dose response, cell-based, RAS-independent, luminescence (AID 1933); assay type: functional; conditions: Homo sapiens
[7] = HEK293T cell cytotoxicity, dose response, cytotoxicity control for HIV Vif inhibitor project, cherry-picks (AID 652208); assay type: functional, cell-based
[8] = molecular target: T3, High affinity choline transporter 1 (Homo sapiens, UniProt Q9GZV3); experiment: CHT inhibitors, dose response, cell-based, 5-point CRC, membrane potential dye (AID 504840); assay type: functional
T3 sequence (Q9GZV3 whole entry): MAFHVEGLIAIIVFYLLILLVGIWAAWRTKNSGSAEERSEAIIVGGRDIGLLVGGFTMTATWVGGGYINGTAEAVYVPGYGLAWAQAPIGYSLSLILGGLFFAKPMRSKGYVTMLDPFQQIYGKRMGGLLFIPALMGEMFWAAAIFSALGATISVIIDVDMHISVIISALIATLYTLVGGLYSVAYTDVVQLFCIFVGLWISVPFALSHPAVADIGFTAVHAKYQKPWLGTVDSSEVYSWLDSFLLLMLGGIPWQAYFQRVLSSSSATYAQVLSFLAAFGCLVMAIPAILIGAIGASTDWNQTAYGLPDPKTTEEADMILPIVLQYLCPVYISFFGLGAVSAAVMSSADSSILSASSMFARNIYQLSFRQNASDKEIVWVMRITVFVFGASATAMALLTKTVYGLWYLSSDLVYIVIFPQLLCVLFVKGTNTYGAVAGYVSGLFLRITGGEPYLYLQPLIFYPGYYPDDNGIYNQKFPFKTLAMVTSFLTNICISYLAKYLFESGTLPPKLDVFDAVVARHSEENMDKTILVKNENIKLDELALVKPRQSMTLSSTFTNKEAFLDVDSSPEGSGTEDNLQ

[9] = molecular target: T3, High affinity choline transporter 1; experiment: CHT inhibitors, dose response, cell-based, 10-point CRC, membrane potential dye (AID 588401); assay type: functional;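 further: membrane potential dye fluorescence of choline-evoked depolarization via CHT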
[10] = inhibitors of firefly luciferase expression or activity, dose response, H4 neuroglioma cells, luminescence (AID 1990); assay type: functional, cell-based
[11] = inhibitors of SNCA 5'UTR-driven reporter translation, confirmation, H4 neuroglioma cells, luminescence (AID 1988); assay type: functional, cell-based
Protein Tat = molecular target: T4, Protein Tat (Human immunodeficiency virus type 1 group M subtype B (isolate HXB2)(HIV-1), UniProt P04608); assay type: functional;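 further: tat binding to TAR RNA read out by fluorescence polarization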
T4 sequence (P04608 whole entry): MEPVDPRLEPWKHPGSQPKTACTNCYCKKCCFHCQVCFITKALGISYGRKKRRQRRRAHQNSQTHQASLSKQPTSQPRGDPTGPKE

[12] = inhibitors of Vif binding to APOBEC3G peptide, primary screen, biochemical, TR-FRET, GST-Vif 1-94, biotin-A3G peptide, dose response retest (AID 1117319); assay type: functional;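 further: TR-FRET signal of purified GST-Vif binding a biotinylated A3G peptide; inhibitors lower the FRET signal by blocking Vif and A3G binding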
[13] = Luminescence Cell-Based Dose Response HTS to Identify Inhibitors of 5'UTR Stem-Loop Driven Prion Protein mRNA Translation in H4 Neuroglioblastoma Cells. [Related pubchem assays: 1827 (Project Summary), 1813 (Primary HTS)]; assay type: functional
CHO = experiment: cytotoxicity in TLR9-MyD88 CHO cells, dose response, cytotoxicity control for TLR9-MyD88 binding inhibitor project, cell-based, luminescence (AID 588339); assay type: functional, hamster; conditions: Cricetulus griseus;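 further: CHO cells stably coexpressing TLR9 and MyD88 fusions from primary screen; compound exposure lasted 48 hours before viability readout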

Chain of Phospholipase A2 (P04054 whole entry): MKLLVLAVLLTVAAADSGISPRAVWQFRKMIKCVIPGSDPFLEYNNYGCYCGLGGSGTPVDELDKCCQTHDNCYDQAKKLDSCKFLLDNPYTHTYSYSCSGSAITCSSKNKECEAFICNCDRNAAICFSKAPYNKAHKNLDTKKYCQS

Q: Which results are given for `O=S(=O)(NCc1ccc2c(c1)OCO2)c1ccc(F)cc1`?
A: IC50 (HEK293): > 67.6 µM (inactive); IC50 [1]: > 67.6 µM (inactive)

Q: Which results are given for `Nc1nn(-c2ccccc2)c(N)c1N=Nc1ccc2c(c1)OCO2`?
A: IC50 (Phospholipase A2): 10.4 µM (active); IC50 (Cysteine protease ATG4B): 15.9 µM (active)

Q: For `O=C(/C=C\c1ccco1)Nc1cc([N+](=O)[O-])ccc1F`, which EC50 (BJ [2]) is on record?
A: Its EC50 is 2.06 µM (active).

Q: And the EC50 (BJ [3])?
A: Its EC50 is 0.821 µM (active).

Q: And the EC50 [4]?
A: The EC50 was 1.17 µM (active).

Q: What about the EC50 (BJ [5]) of the same compound?
A: The EC50 was 0.42 µM (active).

Q: What about the EC50 (BJ [6]) of the same compound?
A: The EC50 was 1.44 µM (active).

Q: Which AC50 [7] does the source give for `O=C(/C=C/c1ccccc1)Nc1nc[nH]n1` here?
A: The AC50 was 23.6 µM (active).

Q: Which results are given for `COc1ccc(-c2cc(=O)c3cc(O)ccc3o2)cc1`?
A: IC50 [8]: 4.38 µM (active); IC50 [9]: 3.64 µM (active)

Q: Which EC50 [10] does the source give for `COc1ccc(-c2ccc(C#N)c(SCC(=O)Nc3sc4c(c3C#N)CCC4)n2)cc1OC` here?
A: Its EC50 is 13.9 µM (active).

Q: And the EC50 [11]?
A: The EC50 was 11.1 µM (active).

Q: And the IC50 (Protein Tat)?
A: The IC50 was > 100 µM (active).

Q: What about the IC50 [12] of the same compound?
A: The IC50 was > 100 µM (active).

Q: And the EC50 [13]?
A: The EC50 was > 120 µM (not active).

Q: And the IC50 (Phospholipase A2)?
A: Its IC50 is 4.06 µM (active).

Q: What about the IC50 (Cysteine protease ATG4B) of the same compound?
A: The IC50 was 5.44 µM (active).

Q: What does the source list for `O=C(CCc1ccccc1)NC(=S)Nc1ccccc1Br`?
A: IC50 (HEK293): > 67.5 µM (inactive); IC50 [1]: > 67.5 µM (inactive)

Q: Which IC50 (CHO) does the source give for `CCCCNC(=O)COC(=O)c1c2c(nc3ccccc13)/C(=C/c1cccs1)CC2` here?
A: Its IC50 is > 49.7 µM (inactive).
